Test results published in the NIST ThermoML archive (doi:10.1016/j.tca.2013.08.031).

Experiment: molar heat capacity at constant volume
Details: Fluid (supercritical or subcritical phases), Vacuum adiabatic calorimetry

CCC(C)O (stereo unspecified) [butan-2-ol]
Details	molar heat capacity at constant volume [J/K/mol]
533.36 K, Mass density=301.19 kg/m3	394.33
533.36 K, Mass density=347.06 kg/m3	375.06
533.36 K, Mass density=474.07 kg/m3	196.42
533.54 K, Mass density=184.89 kg/m3	510.48
533.54 K, Mass density=198.25 kg/m3	497.8
533.54 K, Mass density=245.67 kg/m3	452.07
533.54 K, Mass density=284.93 kg/m3	412.49
533.54 K, Mass density=286.65 kg/m3	422.42
533.54 K, Mass density=301.19 kg/m3	399.52
533.54 K, Mass density=347.06 kg/m3	375.06
533.54 K, Mass density=474.07 kg/m3	196.42
533.68 K, Mass density=286.65 kg/m3	420.64
533.72 K, Mass density=184.89 kg/m3	467.11
533.72 K, Mass density=198.25 kg/m3	506.55
533.72 K, Mass density=245.67 kg/m3	456.07
533.72 K, Mass density=284.93 kg/m3	412.86
533.72 K, Mass density=301.19 kg/m3	403.96
533.72 K, Mass density=347.06 kg/m3	377.28
533.74 K, Mass density=184.89 kg/m3	332.58
533.76 K, Mass density=184.89 kg/m3	294.56
533.78 K, Mass density=184.89 kg/m3	303.68
533.8 K, Mass density=184.89 kg/m3	307.31
533.81 K, Mass density=184.89 kg/m3	283.59
533.91 K, Mass density=198.25 kg/m3	508.47
533.91 K, Mass density=245.67 kg/m3	462
533.91 K, Mass density=284.93 kg/m3	414.71
533.91 K, Mass density=286.65 kg/m3	429.46
533.91 K, Mass density=301.19 kg/m3	408.41
533.91 K, Mass density=347.06 kg/m3	375.06
534.09 K, Mass density=198.25 kg/m3	520.78
534.09 K, Mass density=245.67 kg/m3	460.22
534.09 K, Mass density=279.19 kg/m3	425.38
534.09 K, Mass density=284.93 kg/m3	420.86
534.09 K, Mass density=301.19 kg/m3	412.12
534.09 K, Mass density=347.06 kg/m3	382.47
534.27 K, Mass density=198.25 kg/m3	538.57
534.27 K, Mass density=245.67 kg/m3	465.85
534.27 K, Mass density=279.19 kg/m3	430.42
534.27 K, Mass density=284.93 kg/m3	420.42
534.27 K, Mass density=286.65 kg/m3	436.5
534.27 K, Mass density=347.06 kg/m3	387.66
534.46 K, Mass density=198.25 kg/m3	527.82
534.46 K, Mass density=245.67 kg/m3	472.82
534.46 K, Mass density=279.19 kg/m3	435.09
534.46 K, Mass density=284.93 kg/m3	425.75
534.46 K, Mass density=286.65 kg/m3	439.47
534.46 K, Mass density=301.19 kg/m3	418.79
534.46 K, Mass density=347.06 kg/m3	400.26
534.64 K, Mass density=184.89 kg/m3	279.36
534.64 K, Mass density=198.25 kg/m3	354.23
534.64 K, Mass density=245.67 kg/m3	484.53
534.64 K, Mass density=276.45 kg/m3	433.39
534.64 K, Mass density=279.19 kg/m3	437.91
534.64 K, Mass density=284.93 kg/m3	426.57
534.64 K, Mass density=301.19 kg/m3	421.75
534.64 K, Mass density=347.06 kg/m3	353.56
534.64 K, Mass density=403.55 kg/m3	223.85
534.82 K, Mass density=198.25 kg/m3	329.47
534.82 K, Mass density=245.67 kg/m3	491.43
534.82 K, Mass density=276.45 kg/m3	435.91
534.82 K, Mass density=279.19 kg/m3	441.54
534.82 K, Mass density=284.93 kg/m3	430.13
534.82 K, Mass density=301.19 kg/m3	429.16
534.82 K, Mass density=347.06 kg/m3	246.08
534.82 K, Mass density=403.55 kg/m3	223.11
535.01 K, Mass density=198.25 kg/m3	313.31
535.01 K, Mass density=245.67 kg/m3	498.39
535.01 K, Mass density=276.45 kg/m3	443.47
535.01 K, Mass density=284.93 kg/m3	435.02
535.01 K, Mass density=301.19 kg/m3	431.39
535.01 K, Mass density=347.06 kg/m3	242.38
535.01 K, Mass density=403.55 kg/m3	225.33
535.19 K, Mass density=198.25 kg/m3	319.91
535.19 K, Mass density=245.67 kg/m3	508.62
535.19 K, Mass density=276.45 kg/m3	453.85
535.19 K, Mass density=279.19 kg/m3	457.11
535.19 K, Mass density=284.93 kg/m3	440.21
535.19 K, Mass density=301.19 kg/m3	440.28
535.19 K, Mass density=347.06 kg/m3	243.12
535.19 K, Mass density=403.55 kg/m3	223.11
535.37 K, Mass density=184.89 kg/m3	286.33
535.37 K, Mass density=198.25 kg/m3	301.3
535.37 K, Mass density=245.67 kg/m3	516.03
535.37 K, Mass density=276.45 kg/m3	460.59
535.37 K, Mass density=279.19 kg/m3	465.85
535.37 K, Mass density=284.93 kg/m3	441.02
535.37 K, Mass density=286.65 kg/m3	467.56
535.37 K, Mass density=301.19 kg/m3	445.47
535.37 K, Mass density=403.55 kg/m3	219.4
535.55 K, Mass density=184.89 kg/m3	286.55
535.55 K, Mass density=245.67 kg/m3	535.08
535.55 K, Mass density=276.45 kg/m3	474.75
535.55 K, Mass density=279.19 kg/m3	472.08
535.55 K, Mass density=284.93 kg/m3	454.96
535.55 K, Mass density=286.65 kg/m3	474.38
535.55 K, Mass density=301.19 kg/m3	458.07
535.55 K, Mass density=347.06 kg/m3	243.12
535.55 K, Mass density=403.55 kg/m3	220.88
535.74 K, Mass density=198.25 kg/m3	286.33
535.74 K, Mass density=245.67 kg/m3	563.92
535.74 K, Mass density=276.45 kg/m3	489.72
535.74 K, Mass density=279.19 kg/m3	488.09
535.74 K, Mass density=284.93 kg/m3	470.52
535.74 K, Mass density=286.65 kg/m3	487.57
535.74 K, Mass density=301.19 kg/m3	477.34
535.74 K, Mass density=347.06 kg/m3	249.05
